The values below are quoted from earlier work in patent publication US20140243422A1, “METHODS OF TREATING BEHAVIORAL AND PSYCHIATRIC DISORDERS” (ELAN PHARMACEUTICALS, INC., priority 2011, published 2014).

This data set has as its system brain myo-inositol levels. The note with it: bipolar patients, therapeutic doses, within a few days; cited from earlier work.

Regarding `O=C([O-])[O-].[Li+].[Li+]` [Lithium, lithium carbonate], the “reduction of brain myo-inositol levels” value is recorded as around 30%.
